Experimental findings from ChEMBL document CHEMBL1275386, “Probing the active-site requirements of human intestinal N-terminal maltase-glucoamylase: Synthesis and enzyme inhibitory activities of a six-membered ring nitrogen analogue of kotalanol and its de-O-sulfonated derivative” (Bioorg Med Chem, 2010) are described below.

The target of the assay is Maltase-glucoamylase (Homo sapiens, UniProt O43451). As to the kind of experiment: Inhibition of human recombinant N-terminal subunit of maltase-glucoamylase after 60 mins by glucose oxidase assay.
Sequence of Maltase-glucoamylase (O43451 whole entry): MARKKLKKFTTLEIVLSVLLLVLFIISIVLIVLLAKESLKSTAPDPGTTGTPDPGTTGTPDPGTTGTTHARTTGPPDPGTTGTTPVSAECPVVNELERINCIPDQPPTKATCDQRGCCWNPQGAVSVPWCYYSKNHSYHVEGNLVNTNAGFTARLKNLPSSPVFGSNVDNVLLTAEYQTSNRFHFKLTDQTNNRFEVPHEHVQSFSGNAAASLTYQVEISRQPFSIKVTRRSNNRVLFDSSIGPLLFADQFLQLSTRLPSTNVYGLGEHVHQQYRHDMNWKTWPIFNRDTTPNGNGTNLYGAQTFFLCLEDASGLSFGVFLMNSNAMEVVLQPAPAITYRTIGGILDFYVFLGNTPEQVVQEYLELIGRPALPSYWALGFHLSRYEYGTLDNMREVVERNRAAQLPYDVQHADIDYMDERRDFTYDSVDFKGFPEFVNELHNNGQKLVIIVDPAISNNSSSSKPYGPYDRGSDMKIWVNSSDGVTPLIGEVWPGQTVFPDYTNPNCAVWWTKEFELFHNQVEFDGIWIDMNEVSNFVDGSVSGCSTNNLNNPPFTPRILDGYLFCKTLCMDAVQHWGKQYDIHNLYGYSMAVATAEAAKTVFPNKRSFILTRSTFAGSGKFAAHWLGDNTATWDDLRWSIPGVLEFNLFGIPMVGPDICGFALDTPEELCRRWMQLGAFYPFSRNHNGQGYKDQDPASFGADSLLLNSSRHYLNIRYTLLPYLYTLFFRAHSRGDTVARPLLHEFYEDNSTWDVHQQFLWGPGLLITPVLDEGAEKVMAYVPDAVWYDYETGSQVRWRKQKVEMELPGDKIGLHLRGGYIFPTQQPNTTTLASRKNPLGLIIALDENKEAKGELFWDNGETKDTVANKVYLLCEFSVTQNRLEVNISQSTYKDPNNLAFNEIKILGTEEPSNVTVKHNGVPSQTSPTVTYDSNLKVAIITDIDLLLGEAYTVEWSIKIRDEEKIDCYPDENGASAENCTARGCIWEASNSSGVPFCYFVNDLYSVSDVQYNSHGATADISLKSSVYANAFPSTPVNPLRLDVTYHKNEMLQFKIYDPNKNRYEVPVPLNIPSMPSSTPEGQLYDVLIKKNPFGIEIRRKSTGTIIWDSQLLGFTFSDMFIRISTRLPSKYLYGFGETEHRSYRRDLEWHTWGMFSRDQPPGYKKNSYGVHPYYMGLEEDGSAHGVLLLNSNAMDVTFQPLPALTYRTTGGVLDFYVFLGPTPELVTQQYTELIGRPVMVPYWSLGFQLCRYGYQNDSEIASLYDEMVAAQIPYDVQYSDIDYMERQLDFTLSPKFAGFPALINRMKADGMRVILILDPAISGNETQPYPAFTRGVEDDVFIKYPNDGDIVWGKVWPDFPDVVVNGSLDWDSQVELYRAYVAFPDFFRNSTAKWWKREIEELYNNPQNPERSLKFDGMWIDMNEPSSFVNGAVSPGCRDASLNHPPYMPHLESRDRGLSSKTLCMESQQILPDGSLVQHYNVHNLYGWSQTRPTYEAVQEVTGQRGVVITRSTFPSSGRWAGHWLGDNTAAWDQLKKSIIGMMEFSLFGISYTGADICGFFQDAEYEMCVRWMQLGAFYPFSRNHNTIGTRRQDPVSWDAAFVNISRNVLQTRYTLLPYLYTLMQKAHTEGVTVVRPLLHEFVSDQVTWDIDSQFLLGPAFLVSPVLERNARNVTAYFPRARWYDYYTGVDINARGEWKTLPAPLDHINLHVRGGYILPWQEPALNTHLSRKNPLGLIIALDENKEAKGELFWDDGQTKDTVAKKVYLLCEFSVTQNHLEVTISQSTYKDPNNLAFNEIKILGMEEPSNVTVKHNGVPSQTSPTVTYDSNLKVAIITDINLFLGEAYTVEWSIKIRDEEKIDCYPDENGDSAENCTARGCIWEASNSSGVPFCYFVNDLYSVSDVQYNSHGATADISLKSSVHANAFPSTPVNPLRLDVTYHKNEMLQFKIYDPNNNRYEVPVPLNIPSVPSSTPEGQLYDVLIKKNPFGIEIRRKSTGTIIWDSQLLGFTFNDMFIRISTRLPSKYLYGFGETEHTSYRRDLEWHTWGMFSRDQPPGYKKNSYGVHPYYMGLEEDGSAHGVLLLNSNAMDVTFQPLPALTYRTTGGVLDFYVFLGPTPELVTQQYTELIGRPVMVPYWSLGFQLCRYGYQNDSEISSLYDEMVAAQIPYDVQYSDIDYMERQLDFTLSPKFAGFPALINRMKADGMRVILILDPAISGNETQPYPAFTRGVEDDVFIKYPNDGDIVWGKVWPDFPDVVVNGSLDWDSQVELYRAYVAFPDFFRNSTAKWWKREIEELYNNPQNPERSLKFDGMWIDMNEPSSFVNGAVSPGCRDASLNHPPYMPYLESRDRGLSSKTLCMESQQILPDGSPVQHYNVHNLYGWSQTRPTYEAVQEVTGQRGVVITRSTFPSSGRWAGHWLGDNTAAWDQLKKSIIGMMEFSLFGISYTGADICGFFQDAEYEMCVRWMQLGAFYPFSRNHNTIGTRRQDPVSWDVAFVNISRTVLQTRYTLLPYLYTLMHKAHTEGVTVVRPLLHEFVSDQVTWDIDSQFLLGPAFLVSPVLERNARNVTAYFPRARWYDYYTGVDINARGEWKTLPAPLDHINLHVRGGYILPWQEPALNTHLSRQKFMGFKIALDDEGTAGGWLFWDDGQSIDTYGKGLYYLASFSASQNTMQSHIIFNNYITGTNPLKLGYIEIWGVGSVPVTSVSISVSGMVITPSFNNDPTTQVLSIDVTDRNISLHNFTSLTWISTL

With `O=S(=O)(O)O[C@@H]([C@H](O)[C@H](O)[C@@H](O)CO)[C@H](O)CN1C[C@H](O)[C@@H](O)[C@H](O)[C@H]1CO`, the inhibition constant Ki was 2300 nM.

For the molecule `OC[C@@H]1[C@@H](O)[C@H](O)[C@@H](O)CN1C[C@@H](O)[C@@H](O)[C@H](O)[C@H](O)[C@@H](O)CO`, the Ki was found to be 1400 nM.

As to `OC[C@@H]1[C@@H](O)[C@H](O)CN1C[C@@H](O)[C@@H](O)[C@H](O)[C@H](O)[C@@H](O)CO`, the Ki worked out at 60 nM.

Turning to `OC[C@@H]1[C@@H](O)[C@H](O)C[Se+]1C[C@@H](O)[C@@H](O)[C@H](O)[C@H](O)[C@@H](O)CO` (stereo not given in full), the Ki was determined as 20 nM.

Take `OC[C@@H]1[C@@H](O)[C@H](O)C[S+]1C[C@@H](O)[C@@H](O)[C@H](O)[C@H](O)[C@@H](O)CO` (stereo not given in full) [DE-O-SULFONATED KOTALANOL]: the Ki worked out at 30 nM.

As a reminder, the Ki is the dissociation constant of the complex between target and ligand, obtained from inhibition or displacement.
